Laboratory results published in patent US20250281491A1, “DUAL FUNCTIONING IMMUNE MODULATING COMPOUNDS, FORMULATIONS, AND USES THEREOF” (THE REGENTS OF THE UNIVERSITY OF MICHIGAN, priority 2022, published 2025).

Key:
[1] = biological target: T1, PI3Kγ (Homo sapiens, UniProt P48736); test: PI3K inhibition assay (BPS Bioscience kit, ADP-Glo luminescence); assay type: biochemical; settings: for IC50: purified enzyme
T1 construct: purchased BPS Bioscience (San Diego, CA, USA)
Protocol: (§1) The IC50 of compounds to inhibit different PI3K isoforms were calculated using Prism 8.
(§2) PI3Kα, PI3K β, PI3Kγ, and PI3Kδ binding assay kits were obtained from BPS Bioscience (San Diego, CA, USA). The assays were conducted according to manufacturer's protocols in 96-well microplates. Briefly, 5 μL PI3K lipid substrate was added to all wells. […] 10 μL of PI3Ka (0.5 ng/μL, PI3K β 4 ng/μL, PI3Kγ 4 ng/μL, or PI3Kδ 13 ng/μL) was added to initiate reaction. The plate was carefully shaken, and the reaction mixture was incubated at 30° C. for 40 minutes. Then 25 μL ADP-Glo reagent (Promega, Madison, WI, USA) was added to each well and the reactions were performed in darkness for 45 minutes. Finally, 50 μL of kinase detection reagent (Promega, Madison, WI, USA) was added to each well and the reactions were performed in darkness for 30 minutes. The luminescence of the reaction mixture was read on a Synergy 2 microplate reader (Biotek).

[2] = biological target: T2, PI3K β (Homo sapiens, UniProt P42338); test: as above; assay type: biochemical; settings: for IC50: purified enzyme
T2 construct: purchased BPS Bioscience (San Diego, CA, USA)
T2 sequence (P42338 whole entry): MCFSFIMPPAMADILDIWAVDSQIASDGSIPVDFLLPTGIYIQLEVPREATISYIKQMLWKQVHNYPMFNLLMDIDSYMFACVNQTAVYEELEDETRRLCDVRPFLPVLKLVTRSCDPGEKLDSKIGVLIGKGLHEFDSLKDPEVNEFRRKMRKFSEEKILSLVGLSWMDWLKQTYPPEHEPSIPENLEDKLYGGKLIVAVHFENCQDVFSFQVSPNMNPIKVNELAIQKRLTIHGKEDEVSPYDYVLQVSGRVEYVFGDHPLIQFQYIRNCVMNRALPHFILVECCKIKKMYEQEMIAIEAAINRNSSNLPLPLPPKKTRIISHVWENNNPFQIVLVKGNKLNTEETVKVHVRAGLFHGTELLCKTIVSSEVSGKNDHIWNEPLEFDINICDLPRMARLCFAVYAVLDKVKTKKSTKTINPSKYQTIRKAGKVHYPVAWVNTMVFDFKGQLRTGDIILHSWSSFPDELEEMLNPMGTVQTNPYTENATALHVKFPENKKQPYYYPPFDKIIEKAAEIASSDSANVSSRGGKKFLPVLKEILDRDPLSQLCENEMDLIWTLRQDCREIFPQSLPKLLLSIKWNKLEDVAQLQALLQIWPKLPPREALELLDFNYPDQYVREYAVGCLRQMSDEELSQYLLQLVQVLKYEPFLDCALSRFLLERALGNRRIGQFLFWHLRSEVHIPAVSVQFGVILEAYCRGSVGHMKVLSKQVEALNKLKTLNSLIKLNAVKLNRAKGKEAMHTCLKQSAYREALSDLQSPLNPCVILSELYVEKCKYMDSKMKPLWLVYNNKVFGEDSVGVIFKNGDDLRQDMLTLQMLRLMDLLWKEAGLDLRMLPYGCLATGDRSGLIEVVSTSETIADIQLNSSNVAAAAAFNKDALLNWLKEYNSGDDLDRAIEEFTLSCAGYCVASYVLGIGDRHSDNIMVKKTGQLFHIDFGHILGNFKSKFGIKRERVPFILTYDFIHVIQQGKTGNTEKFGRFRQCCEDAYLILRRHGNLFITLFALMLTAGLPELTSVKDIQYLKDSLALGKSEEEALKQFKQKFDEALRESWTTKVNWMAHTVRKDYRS
T2 sequence (P27986 whole entry partner): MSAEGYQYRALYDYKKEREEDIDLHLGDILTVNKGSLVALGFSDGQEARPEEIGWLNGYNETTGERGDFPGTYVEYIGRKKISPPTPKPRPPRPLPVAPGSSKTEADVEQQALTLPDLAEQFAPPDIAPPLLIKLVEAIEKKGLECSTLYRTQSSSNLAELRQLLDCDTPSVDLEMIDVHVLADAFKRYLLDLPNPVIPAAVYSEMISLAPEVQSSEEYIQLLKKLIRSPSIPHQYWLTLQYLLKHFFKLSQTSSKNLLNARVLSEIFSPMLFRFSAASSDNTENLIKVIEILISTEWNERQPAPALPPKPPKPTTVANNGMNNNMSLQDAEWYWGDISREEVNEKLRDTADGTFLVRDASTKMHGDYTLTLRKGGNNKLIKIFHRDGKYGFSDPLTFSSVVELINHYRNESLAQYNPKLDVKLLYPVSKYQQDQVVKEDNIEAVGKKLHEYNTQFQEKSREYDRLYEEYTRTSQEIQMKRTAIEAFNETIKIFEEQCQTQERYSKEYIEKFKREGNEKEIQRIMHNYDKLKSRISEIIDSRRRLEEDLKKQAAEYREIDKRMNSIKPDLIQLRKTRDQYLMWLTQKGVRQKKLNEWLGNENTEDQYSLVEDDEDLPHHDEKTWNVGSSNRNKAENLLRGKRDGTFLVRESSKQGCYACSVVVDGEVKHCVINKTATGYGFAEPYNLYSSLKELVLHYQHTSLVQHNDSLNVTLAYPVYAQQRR
Protocol: as §1, §2

[3] = biological target: T3, PI3Kδ (Homo sapiens, UniProt O00329); test: as above; assay type: biochemical; settings: for IC50: purified enzyme
T3 construct: purchased BPS Bioscience (San Diego, CA, USA)
T3 sequence (O00329 whole entry): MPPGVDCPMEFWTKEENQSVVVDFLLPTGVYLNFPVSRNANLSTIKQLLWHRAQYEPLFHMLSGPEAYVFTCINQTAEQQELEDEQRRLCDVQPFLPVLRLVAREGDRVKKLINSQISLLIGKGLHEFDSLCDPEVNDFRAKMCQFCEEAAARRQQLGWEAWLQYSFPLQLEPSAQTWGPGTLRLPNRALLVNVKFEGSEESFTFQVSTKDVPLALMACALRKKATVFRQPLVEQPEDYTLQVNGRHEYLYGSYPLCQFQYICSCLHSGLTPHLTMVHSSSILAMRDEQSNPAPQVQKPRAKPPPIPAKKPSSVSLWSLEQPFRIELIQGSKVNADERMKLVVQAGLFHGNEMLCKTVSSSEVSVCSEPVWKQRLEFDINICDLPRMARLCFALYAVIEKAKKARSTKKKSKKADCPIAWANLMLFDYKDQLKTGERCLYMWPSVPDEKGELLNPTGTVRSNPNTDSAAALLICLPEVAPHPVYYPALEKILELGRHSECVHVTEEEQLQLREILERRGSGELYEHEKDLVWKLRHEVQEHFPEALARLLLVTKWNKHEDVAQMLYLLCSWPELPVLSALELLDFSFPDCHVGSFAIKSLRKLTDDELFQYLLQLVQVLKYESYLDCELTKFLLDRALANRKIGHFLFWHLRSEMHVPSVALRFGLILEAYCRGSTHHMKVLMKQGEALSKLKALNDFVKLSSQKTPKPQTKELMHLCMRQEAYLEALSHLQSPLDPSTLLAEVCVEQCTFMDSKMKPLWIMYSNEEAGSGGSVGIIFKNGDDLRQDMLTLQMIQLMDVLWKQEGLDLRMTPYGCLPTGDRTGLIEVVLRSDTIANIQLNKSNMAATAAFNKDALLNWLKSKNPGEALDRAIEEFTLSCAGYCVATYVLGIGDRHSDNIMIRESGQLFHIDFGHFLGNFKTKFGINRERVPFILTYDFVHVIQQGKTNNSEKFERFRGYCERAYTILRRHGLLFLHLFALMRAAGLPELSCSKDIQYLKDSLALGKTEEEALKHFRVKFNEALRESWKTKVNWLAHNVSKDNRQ
T3 sequence (P27986 whole entry partner): as the sequence (P27986 whole entry partner) above
Protocol: as §1, §2

[4] = biological target: T4, PI3Kα (Homo sapiens, UniProt P42336); test: as above; assay type: biochemical; settings: for IC50: purified enzyme
T4 construct: purchased BPS Bioscience (San Diego, CA, USA)
T4 sequence (P42336 whole entry): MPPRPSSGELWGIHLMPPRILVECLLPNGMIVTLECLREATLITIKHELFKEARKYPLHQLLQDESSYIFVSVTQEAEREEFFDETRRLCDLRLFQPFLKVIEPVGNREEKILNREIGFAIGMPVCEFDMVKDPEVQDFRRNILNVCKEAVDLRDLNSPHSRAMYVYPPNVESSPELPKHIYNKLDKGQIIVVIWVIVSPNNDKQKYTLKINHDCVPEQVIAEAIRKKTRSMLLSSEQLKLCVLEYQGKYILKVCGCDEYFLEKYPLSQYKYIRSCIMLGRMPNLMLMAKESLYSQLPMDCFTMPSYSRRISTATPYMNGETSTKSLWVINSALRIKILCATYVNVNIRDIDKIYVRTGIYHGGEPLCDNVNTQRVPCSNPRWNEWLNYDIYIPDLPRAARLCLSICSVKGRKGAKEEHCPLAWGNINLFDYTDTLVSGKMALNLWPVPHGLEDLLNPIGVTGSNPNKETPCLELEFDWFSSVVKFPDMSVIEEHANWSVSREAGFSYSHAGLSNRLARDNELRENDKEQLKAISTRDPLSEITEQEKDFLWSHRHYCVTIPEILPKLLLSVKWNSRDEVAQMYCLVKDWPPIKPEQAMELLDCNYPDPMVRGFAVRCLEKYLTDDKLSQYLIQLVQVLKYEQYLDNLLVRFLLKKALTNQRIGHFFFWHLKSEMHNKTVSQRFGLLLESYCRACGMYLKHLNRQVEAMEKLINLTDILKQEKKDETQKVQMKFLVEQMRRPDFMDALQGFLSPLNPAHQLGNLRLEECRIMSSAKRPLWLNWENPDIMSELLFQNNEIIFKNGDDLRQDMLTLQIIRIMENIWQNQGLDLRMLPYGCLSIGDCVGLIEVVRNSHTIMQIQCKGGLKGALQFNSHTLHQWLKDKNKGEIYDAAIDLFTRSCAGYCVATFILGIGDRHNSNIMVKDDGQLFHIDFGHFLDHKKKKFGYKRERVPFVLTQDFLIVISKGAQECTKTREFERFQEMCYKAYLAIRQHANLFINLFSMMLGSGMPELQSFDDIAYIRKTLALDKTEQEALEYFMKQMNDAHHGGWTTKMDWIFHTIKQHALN
T4 sequence (P27986 whole entry partner): as the sequence (P27986 whole entry partner) above
Protocol: as §1, §2

[5] = test system: M2 polarized RAW264.7 cells; test: M1 macrophage ratio (CD80 and CD86, flow cytometry) from M2 polarized RAW264.7 cells; assay type: cell-based; settings: 2 days; for M1 macrophage percentage among all the macrophages: 10 μM, FIG. 9
Protocol: FIG. 10 is a graph of M1 macrophage ratio as determined by measuring CD80 and CD86 as markers for M1 macrophage by flow cytometry from M2 polarized RAW264.7 cells incubated with different concentrations of DMA01-166 for 2 days.
Macrophage polarization effects of the dual functioning NCEs were further tested by first inducing RAW264.7 cells to M2 macrophage, and then treating with different drugs to test the M1 macrophage percentage among all the macrophages.

[6] = test system: M2 polarized RAW264.7 cells; test: TNFα secretion from M2 polarized RAW264.7 cells by ELISA (macrophage polarization); settings: 10 μM, 2 days, vs M2 control group, FIG. 8
[7] = test system: mouse bone marrow derived dendritic cells (BMDCs); test: mIFNβ secretion from BMDCs by ELISA; assay type: cell-based; settings: 24 hours; for mIFNβ secretion: BMDC supernatants, 10 μM, FIG. 6
Protocol: FIG. 7 a graph of mIFNβ concentrations as measured by ELISA from the supernatants of mouse bone marrow derived dendritic cells (BMDCs) incubated with different concentrations of DMA01-166 for 24 hours.
STING activation in BMDC results in mIFNβ secretion. […] Different concentrations of DMA01-166 (FIG. 7) were incubated with BMDC cells for 24 hours.

[8] = test system: KPC transgenic pancreatic cancer model; test: In vivo efficacy on KPC transgenic pancreatic cancer model; settings: FIG. 13
Protocol: FIG. 13 is a graph of the in vivo efficacy on KPC transgenic pancreatic cancer model of an exemplary albumin nanoformulations of: DMA01-166 (D166) and DMA01-166 plus PD-1 antibody (D166+PD-1) with and without paclitaxel (Nano-P).
The in vivo efficacy of DMA01-166 and its albumin nanoformulation was tested on KPC transgenic model.

[9] = test system: mouse bone marrow derived dendritic cells (BMDCs); test: BMDC activation, upregulation of CD80 and CD86 by flow cytometry; assay type: cell-based; settings: 24 hours
Protocol: FIG. 5 are graphs of BMDC activation as measured based on the upregulation of CD80 and CD86 by flow cytometry for different concentrations of DMA01-166 incubated with mouse bone marrow derived dendritic cells (BMDCs) for 24 hours.
STING activation induces BMDC activation. To test the ability of DMA01-166 in activating BMDC, BMDCs activation was measured based on the upregulation of CD80 and CD86 by flow cytometry. […] Different concentrations of DMA01-166 were incubated with BMDC cells for 24 hours.

[10] = test system: STING; test: STING activation in THP-1 ISG Blue cells (QUANTI-Blue, OD 655); assay type: cell-based; settings: 24 hours, FIG. 1
Protocol: FIG. 1 is a graph of STING activation for different concentrations of compounds as determined by incubating with THP-1 ISG Blue cells for 24 hours, mixing with ‘QUANTI-Blue’ solution and measuring OD 655.
FIG. 2 is a graph of STING activation for different concentrations of DMA01-166 as determined by incubating with THP-1 ISG Blue cells for 24 hours, mixing with ‘QUANTI-Blue’ solution and measuring OD 655.
FIG. 3 is a graph of STING activation for different concentrations of MSA-2 as determined by incubating with THP-1 ISG Blue cells for 24 hours, mixing with ‘QUANTI-Blue’ solution and measuring OD 655.
THP-1 ISG Blue cells analysis is a standard assay to test STING activation in vitro. […] Different concentrations of DMA01-166 (FIG. 2) and MSA-2 (FIG. 3) were incubated with THP-1 ISG Blue cells for 24 hours.

T1 sequence (P48736 whole entry): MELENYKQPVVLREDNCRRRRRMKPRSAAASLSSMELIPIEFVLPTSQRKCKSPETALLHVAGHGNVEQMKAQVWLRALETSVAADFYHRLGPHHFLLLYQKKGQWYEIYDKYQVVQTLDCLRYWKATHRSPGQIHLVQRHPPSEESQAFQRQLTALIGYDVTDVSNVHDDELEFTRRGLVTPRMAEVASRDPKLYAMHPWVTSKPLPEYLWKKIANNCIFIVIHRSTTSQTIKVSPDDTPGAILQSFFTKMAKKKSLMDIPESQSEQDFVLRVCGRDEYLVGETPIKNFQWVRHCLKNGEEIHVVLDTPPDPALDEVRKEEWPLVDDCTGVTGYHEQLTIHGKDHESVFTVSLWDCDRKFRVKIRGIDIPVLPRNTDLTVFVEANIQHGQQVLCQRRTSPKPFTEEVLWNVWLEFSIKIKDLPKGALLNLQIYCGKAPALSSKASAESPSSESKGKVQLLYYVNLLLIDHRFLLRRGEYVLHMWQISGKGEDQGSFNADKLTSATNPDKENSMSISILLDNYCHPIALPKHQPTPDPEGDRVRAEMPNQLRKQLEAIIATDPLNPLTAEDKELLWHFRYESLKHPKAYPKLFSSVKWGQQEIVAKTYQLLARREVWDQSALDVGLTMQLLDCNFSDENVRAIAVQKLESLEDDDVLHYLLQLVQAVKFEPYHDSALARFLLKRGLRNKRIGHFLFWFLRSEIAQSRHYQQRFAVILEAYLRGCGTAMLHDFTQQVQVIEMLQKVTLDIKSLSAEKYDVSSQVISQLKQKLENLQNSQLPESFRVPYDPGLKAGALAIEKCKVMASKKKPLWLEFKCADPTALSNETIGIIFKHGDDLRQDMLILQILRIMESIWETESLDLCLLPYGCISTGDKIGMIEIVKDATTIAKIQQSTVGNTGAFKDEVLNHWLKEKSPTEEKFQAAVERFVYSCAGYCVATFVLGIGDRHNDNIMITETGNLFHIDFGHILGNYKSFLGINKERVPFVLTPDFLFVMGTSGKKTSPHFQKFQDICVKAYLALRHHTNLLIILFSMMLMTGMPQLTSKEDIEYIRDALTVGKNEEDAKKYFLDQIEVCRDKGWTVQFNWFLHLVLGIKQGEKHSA

SMILES | Inhibition of PI3Kγ (in words) [1] | IC50 [1] [nM] | IC50 [2] [nM] | Inhibition of PI3Kδ (in words) [3] | IC50 [3] [nM] | IC50 [4] [nM] | M1 macrophage percentage among all the macrophages [5] | Macrophage polarization (TNFα secretion) [6] | Macrophage polarization (M1 ratio) at different concentrations ([5]; FIG. 10) | mIFNβ secretion [7] | mIFNβ secretion at different concentrations ([7]; BMDC, FIG. 7) | Median survival [8] [days] | BMDC activation at different concentrations ([9]; FIG. 5) | Inhibition of PI3K β (in words) [2] | Inhibition of PI3Kα (in words) [4] | STING activation (interferon signal) [10] | BMDC activation (upregulation of CD80 and CD86) ([9]; 10 μM, FIG. 4)
CCOC(=O)Cn1cc(-c2cccc3cc([C@H](C)NC(=O)c4c(N)nn5cccnc45)n(-c4ccccc4)c(=O)c23)nn1 [DMA01-132] | inhibited both PI3Kγ and PI3Kδ | 0.845 | 374 | inhibited both PI3Kγ and PI3Kδ | 0.381 | 372 |  |  |  |  |  |  |  |  |  |  | 
CCCCC/C=C/C/C=C\CCCCCCCC(=O)OCCn1cc(-c2cccc3cc([C@@H](C)NC(=O)c4c(N)nn5cccnc45)n(-c4ccccc4)c(=O)c23)nn1 [DMA01-170, 2-(4-(3-((R)-1-(2-aminopyrazolo[1,5-a]pyrimidine-3-carboxamido)ethyl)-1-oxo-2-phenyl-1,2-dihydroisoquinolin-8-yl)-1H-1,2,3-triazol-1-yl)ethyl (9Z,12E)-octadeca-9,12-dienoate] |  |  |  |  |  |  | mild effects on increasing M1 percentage | showed macrophage polarization effects compared to M2 control group |  |  |  |  |  |  |  |  | 
C[C@H](NC(=O)c1c(N)nn2cccnc12)c1cc2cccc(-c3cn(CC(=O)O)nn3)c2c(=O)n1-c1ccccc1 [DMA01-143, (S)-2-(4-(3-(1-(2-aminopyrazolo[1,5-a]pyrimidine-3-carboxamido)ethyl)-1-oxo-2-phenyl-1,2-dihydroisoquinolin-8-yl)-1H-1,2,3-triazol-1-yl) acetic acid] | inhibited both PI3Kγ and PI3Kδ | 5.34 | 312 | inhibited both PI3Kγ and PI3Kδ | 1.36 | 409 |  |  |  |  |  |  |  |  |  |  | 
COc1cc2cc(C(=O)CCC(=O)OCCn3cc(-c4cccc5cc([C@@H](C)NC(=O)c6c(N)nn7cccnc67)n(-c6ccccc6)c(=O)c45)nn3)sc2cc1OC [DMA01-166, (R)-2-(4-(3-(1-(2-aminopyrazolo[1,5-a]pyrimidine-3-carboxamido)ethyl)-1-oxo-2-phenyl-1,2-dihydroisoquinolin-8-yl)-1H-1,2,3-triazol-1-yl)ethyl 4-(5,6-dimethoxybenzo[b]thiophen-2-yl)-4-oxobutanoate] |  | 349 | > 10000 |  | 1250 | > 10000 | higher percentage of M1 macrophage compared to IPI-549, cGAMP, ADU and MSA-2 |  | dose independent macrophage polarization effect | higher mIFNβ secretion compared to MSA-2 | dose independent BMDC activation effect | 157.5 | dose independent BMDC activation effect | no effect | no effect | enhanced interferon signal compared to control and cGAMP group | 
C[C@H](NC(=O)c1c(N)nn2cccnc12)c1cc2cccc(-c3cn(CCO)nn3)c2c(=O)n1-c1ccccc1 [DMA01-148] | selectively inhibited PI3Kγ, with similar efficacy compared to IPI-549 | 0.864 | 548 |  | 15.4 | 1050 |  |  |  |  |  |  |  |  |  |  | 
C[C@@H](NC(=O)c1c(N)nn2cccnc12)c1cc2cccc(-c3cn(CCOC(=O)[C@H](N)Cc4cn(C)c5ccccc45)nn3)c2c(=O)n1-c1ccccc1 [DMA01-173, 2-(4-(3-((R)-1-(2-aminopyrazolo[1,5-a]pyrimidine-3-carboxamido)ethyl)-1-oxo-2-phenyl-1,2-dihydroisoquinolin-8-yl)-1H-1,2,3-triazol-1-yl)ethyl 1-methyl-D-tryptophanate] |  |  |  |  |  |  | mild effects on increasing M1 percentage | showed macrophage polarization effects compared to M2 control group |  | cannot enhance mIFNβ secretion |  |  |  |  |  | did not stimulate STING activation | did not stimulate DC activation
